Reference: US20230167437A1, “COMPOSITIONS FOR TREATING CANCER WITH KRAS MUTATIONS AND USES THEREOF” (Aadigen, LLC, priority 2020, published 2023)

Assays:
Format in all cases: cell-based, human
KRAS 35G>T mutant G12V = assay: Indel frequencies at the endogenous target sequences (T7E1 / deep sequencing) after ADGN/Cas9 mRNA/gRNA transfection; conditions: for indel editing and disruption of G12V mutant KRAS (FIG. 1A): SW403, SW480 vs wild type KRAS HT29 cells, T7E1; for indel frequencies: deep sequencing, 72 hours after transfection, Cas9 mRNA 0.15 μg, gRNA 0.2 μg, ADGN-100
Description: (§1) Complex formation with mRNA:gRNA: ADGN peptide/mRNA/gRNA particles were prepared at a 20:1:1 molar ratio. ADGN/Cas9mRNA/sgRNA complexes were prepared at a 20/1/1 molar ratio with 0.5 μg mRNA: 1.5 μg sgRNA and 5% Glucose or DMEM (example for 96 well plates). […] Premixed Cas9 mRNA/gRNA were prepared in sterile water at room temperature in a glass vial (1-4 ml). ADGN-peptide solution was added dropwise (1 drop/sec) under magnetic agitation at 400 rpm to obtain a 1:2 ratio, and incubated for 30 min at room temperature or 37° C. Just before transfection, 150 μl Glucose or DMEM was added and the solution was mixed under magnetic agitation at 400 rpm for 1 minute. Then the solution was incubated for 5 min at 37° C. Then the complexes was ready for cell transfection or IV administration. Prior to IV administration, complexes were diluted in sucrose 5% solution.
(§2) Transfection protocol. The following protocols are reported for 24/48/96 well plate format transfection. Cells should be trypsinized and seeded a day prior transfection Cells were cultured in Dulbecco's Modified Eagle's Medium (DMEM), supplemented with 2 mM glutamine, 1% antibiotics (streptomycin 10,000 μg/mL, penicillin, 10,000 IU/mL) and 10% (w/v) foetal calf serum (FCS), at 37° C. in a humidified atmosphere containing 5% CO2. 96 well plates seeded with 50,000 cells, the day prior transfection, grown to 60-80% confluence and set up to be at around 70% confluence at the day of transfection. Before transfection, cells are washed twice with DMEM (without FBS and pen/strep) (100 μl/well). Cells were then overlaid with 25 μl of complex solution, mixed gently and incubated for 10 min at 37° C.+5% CO2. 50 μl of fresh DMEM (without FBS and Antibiotics) was added and cells were incubated for 2 h at 37° C.+5% CO2 (time of exposure can be adjusted based on sensitivity of the cells). 250 μL of DMEM (containing 10% FCS and 1% antibiotics) were then added without removing the overlay of ADGN peptide/mRNA complexes. Cells were returned to the incubator (37° C., 5% CO2) and analyzed 48 hours to 72 hours post transfection.
(§3) Nine different gRNAs targeting KRAS 35G>T mutant G12V (gRNA35T1, gRNA35T2, gRNA35T3, gRNA35T4, gRNA35T5, gRNA35T6, gRNA35T7, gRNA35T8 and gRNA35T9 (see FIG. 18)) were evaluated on SW403 and SW480 cancer cells harboring G12V KRAS mutation. Cas9 mRNA (0.15 μg) and gRNA (0.2 μg) were associated with ADGN-peptides as reported in experimental procedure. SW403, SW480 and HT-29 cells were cultured in 48 well plate format and treated with free mRNACas9-gRNA, or ADGN-100/mRNACas9:gRNA complex. Indel frequencies at the endogenous target sequences was evaluated 72 hours after transfection by either T7E1 method and by deep sequencing. Cell proliferation was analyzed over a period of 5 days using CellTiter Glow kits on GlowMax (Promega).
(§4) In order to confirm the specificity of sgRNAs targeting G12V, G12C or G12D KRAS mutation, gRNA35T3 targeting G12V, gRNA34T6 targeting G12C, and gRNA35A5 targeting G12D were evaluated on a large panel of cancer cells harboring different KRAS mutations including SW403, SW480, PANC1, PK-45H, PK-1, MIA-PACA, H23, H358, HT-29, HS-68 and LS513. Cas9 mRNA (0.2 μg) and gRNA (0.4 μg) were associated with ADGN peptide at molar ratio 20/1 (peptide/nucleic acid). Cells were cultured in 48 well plate format and treated with free mRNACas9-gRNA, or ADGN/mRNACas9:gRNA complex. Indel frequencies at the endogenous target sequences was evaluated 72 hours after transfection by either T7E1 method and cell proliferation was analyzed over a period of 5 days using CellTiter Glow kits on GlowMax (Promega).

SW403 and SW480 cells = assay: Cell proliferation over 5 days (CellTiter Glow); conditions: SW480 and SW403 cells vs HT29 cells harboring KRAS WT
Description: as §2, §3

KRAS 35G>A mutant G12D = assay: Indel frequencies at the endogenous target sequences (T7E1 / deep sequencing) after ADGN/Cas9 mRNA/gRNA transfection; conditions: for indel frequencies: deep sequencing, 72 hours after transfection, Cas9 mRNA 0.1 μg, gRNA 0.2 μg
Description: as §1, §2
(§5) Nine different gRNAs targeting KRAS 35G>A mutant G12D (gRNA35A1, gRNA35A2, gRNA35A3, gRNA35A4, gRNA35A5, gRNA35A6; gRNA35A7, gRNA35A8, gRNA35A9) were evaluated on LS513, Panc1, PK-45H, and PK1 cancer cells harboring G12D KRAS mutation. Cas9 mRNA (0.1 μg) and gRNA (0.2 μg) were associated with ADGN-peptide at molar ratio 20/1 (peptide/nucleic acid). LS513, Panc1, PK-45H, PK1, HS-68 and HT-29 cells were cultured in 48 well plate format and treated with free mRNACas9-gRNA, or ADGN/mRNACas9:gRNA complex. Indel frequencies at the endogenous target sequences was evaluated 72 hours after transfection by either T7E1 method or deep sequencing. Cell proliferation was analyzed over a period of 5 days using CellTiter Glow kits on GlowMax (Promega).
as §4

wild type KRAS = assay: as above; conditions: for indel frequencies: deep sequencing, 72 hours after transfection, Cas9 mRNA 0.1 μg, gRNA 0.2 μg
Description: as §1, §2, §3, §5

[1] = tested on: PANC1, PK1, LS513 and PK-45H cells; assay: Cell proliferation over 5 days (CellTiter Glow); conditions: PANC1, PK1, LS513, PK-45H vs HT29 or HS-68 cells harboring KRAS WT
Description: as §2, §5

[2] = SW403 cells (heterozygous 35G>T)

With “TGGTAGTTGGAGCTGTTGGCGT (guide TGGTAGTTGGAGCTGTTGGCGT; chemistry not given here) [gRNA35T1, sgRNA target KRAS G12V mutation (c.35G>T); PAM AGG]” the “indel editing and disruption of G12V mutant KRAS (FIG. 1A)” value (from here on “indel editing and disruption”) (KRAS 35G>T mutant G12V) was “specifically induced indel editing and efficient disruption”, the indel frequencies (KRAS 35G>T mutant G12V; [2]) was 35% and the indel frequencies (KRAS 35G>T mutant G12V; SW480 cells (homozygous 35G>T)) was 57%. The “inhibition of proliferation or survival (FIG. 1B)” value (“inhibition … (FIG. 1B)” for short) (SW403 and SW480 cells) was “specifically inhibit proliferation or survival of SW480 and SW403 cells”.
In the case of “GTAGTTGGAGCTGATGGCGT (guide GTAGTTGGAGCTGATGGCGT; chemistry not given here) [gRNA35A7, sgRNA target KRAS G12D mutation (35G>A); PAM AGG]”, the “disruption of G12D mutant KRAS (FIG. 2A)” value (KRAS 35G>A mutant G12D; G12D cancer cells vs wild type KRAS cells (HT29 or HS-68)) is reported as “induced efficient disruption of G12D mutant KRAS”, the indel frequencies (KRAS 35G>A mutant G12D; LS513 cells) is reported as 24 ± 2% and the indel frequencies (KRAS 35G>A mutant G12D; PANC1 cells) is reported as 47 ± 1%. It also gave an indel frequencies (KRAS 35G>A mutant G12D; PK1 cells) of 31 ± 2%, an indel frequencies (KRAS 35G>A mutant G12D; PK-45H cells) of 35 ± 0.5% and an indel frequencies (wild type KRAS; HS68 cells (WT KRAS)) of 4 ± 0.4%. The indel frequencies (wild type KRAS; HT-29 cells (WT KRAS)) was 7 ± 2% and the “inhibition of proliferation or survival (FIG. 2B)” value [1] was “specifically inhibit proliferation or survival of PANC1, PK1, LS513 and PK-45H cells”.
In the case of “GTAGTTGGAGCTGTTGGCGT (guide GTAGTTGGAGCTGTTGGCGT; chemistry not given here) [gRNA35T8, sgRNA target KRAS G12V mutation (c.35G>T); PAM AGG]”, the “indel editing and disruption” value (KRAS 35G>T mutant G12V) is reported as “specifically induced indel editing and efficient disruption”, the indel frequencies (KRAS 35G>T mutant G12V; [2]) is reported as 40% and the indel frequencies (KRAS 35G>T mutant G12V; SW480 cells (homozygous 35G>T)) is reported as 51%. The “inhibition … (FIG. 1B)” value (SW403 and SW480 cells) was “specifically inhibit proliferation or survival of SW480 and SW403 cells”.
“GTT GGA GCT GTT GGC GT (guide GTTGGAGCTGTTGGCGT; chemistry not given here) [gRNA35T6, sgRNA target KRAS G12V mutation (c.35G>T); PAM AGG]” was tested, and the “indel editing and disruption” value (KRAS 35G>T mutant G12V) was “specifically induced indel editing and efficient disruption”, the indel frequencies (KRAS 35G>T mutant G12V; [2]) was 18% and the indel frequencies (KRAS 35G>T mutant G12V; SW480 cells (homozygous 35G>T)) was 39%. The “inhibition … (FIG. 1B)” value (SW403 and SW480 cells) was “specifically inhibit proliferation or survival of SW480 and SW403 cells”.
“CTTGTGGTAGTTGGAGCTGA (guide CTTGTGGTAGTTGGAGCTGA; chemistry not given here) [gRNA35A1, sgRNA target KRAS G12D mutation (35G>A); PAM TGG]” gave an indel frequencies (KRAS 35G>A mutant G12D; LS513 cells) of 17 ± 2%, an indel frequencies (KRAS 35G>A mutant G12D; PANC1 cells) of 32 ± 2% and an indel frequencies (KRAS 35G>A mutant G12D; PK1 cells) of 12 ± 1%. The indel frequencies (KRAS 35G>A mutant G12D; PK-45H cells) was 15 ± 0.8%, the indel frequencies (wild type KRAS; HS68 cells (WT KRAS)) was 8 ± 1% and the “effect on wild type KRAS cells” value (wild type KRAS; HT-29 and HS-68 cells) was “also affected wild type KRAS cells”. The indel frequencies (wild type KRAS; HT-29 cells (WT KRAS)) was 10 ± 1% and the “inhibition of proliferation or survival (FIG. 2B)” value [1] was “specifically inhibit proliferation or survival of PANC1, PK1, LS513 and PK-45H cells”.
